Calls of active or inactive are those of the source.

The record followed here is ChEMBL document CHEMBL1201862, “PubChem BioAssay data set” (2004).

A short description of test [1]: Luminescence Cell-Based Dose Retest to Confirm Inhibitors of Cancer Stem Cells. [Related pubchem assays (depositor defined):AID2717, AID2721]. Format: functional. To be noted: Homo sapiens.
The nature of test [2]: P. falciparum Dd2 growth inhibitors, dose response, SYBR Green, cherry-picked samples (AID 1159567). In kind it is functional, cell-based.
For test [3], the target named is T1, Polyadenylate-binding protein 1 (Homo sapiens, UniProt P11940). The experiment in a line: MLLE binding blockers, Cy5 peptide tracer – biochemical, fluorescence polarization, Cy5-PAM2 peptide, secondary, miRNA deadenylation inhibitor project, dose response (AID 602260). To be noted: read-out: IC50_Mean. Format: functional.
T1 sequence (P11940 whole entry, the tested form may be a part): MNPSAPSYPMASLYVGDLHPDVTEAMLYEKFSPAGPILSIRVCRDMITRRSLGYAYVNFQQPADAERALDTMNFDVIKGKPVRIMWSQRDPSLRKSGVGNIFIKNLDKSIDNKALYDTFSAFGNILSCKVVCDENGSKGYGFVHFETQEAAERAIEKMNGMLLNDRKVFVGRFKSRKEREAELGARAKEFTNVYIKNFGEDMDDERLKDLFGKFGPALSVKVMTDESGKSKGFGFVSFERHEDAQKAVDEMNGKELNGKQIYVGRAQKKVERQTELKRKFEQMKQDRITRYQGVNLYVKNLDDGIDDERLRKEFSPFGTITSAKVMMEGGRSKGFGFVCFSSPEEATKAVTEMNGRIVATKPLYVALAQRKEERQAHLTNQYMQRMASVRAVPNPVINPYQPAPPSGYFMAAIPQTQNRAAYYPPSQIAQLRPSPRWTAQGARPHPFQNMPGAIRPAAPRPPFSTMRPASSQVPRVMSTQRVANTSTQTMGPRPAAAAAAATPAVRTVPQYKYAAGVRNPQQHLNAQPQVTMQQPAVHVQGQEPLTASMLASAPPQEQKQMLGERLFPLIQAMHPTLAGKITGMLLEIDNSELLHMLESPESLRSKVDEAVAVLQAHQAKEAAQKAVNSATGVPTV
Test [4] has as its target T1, Polyadenylate-binding protein 1. The experiment in a line: MLLE domain peptide-binding blockers, IC50 – biochemical, fluorescence polarization, FITC-PAM2 peptide, dose response (AID 602259). Format: functional. Conditions: read-out: IC50_Mean.
Test [5] is described as follows: viability of uninfected HEp-2 cells – cell-based, HTS, cytotoxicity control for RSV inhibitor project, dose response (AID 2410). In kind it is functional. Conditions: human respiratory syncytial virus.
Test [6] relates to BJ. Put plainly: cells. Format: functional, cell-based. Conditions: Homo sapiens.
The test system of test [7] is BJ. Put plainly: BJ-TERT fibroblast viability loss – cell-based, RAS-independent, luminescence, dose response (AID 1933). Format: functional. Conditions: Homo sapiens.
Test [8] in a line: DRD fibroblast viability loss – cell-based, non-viral oncogenic, luminescence, dose response (AID 1934). In kind it is functional. To be noted: Homo sapiens.
Test [9] relates to BJ. Put plainly: BJ-TERT-LT-ST fibroblast viability loss – cell-based, RAS-independent, luminescence, dose response (AID 1935).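 Note: BJ fibroblasts immortalized with TERT plus LT and ST oncogenes.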 In kind it is functional. Conditions: Homo sapiens.
Test [10] concerns the target Large T antigen (Simian virus 40, UniProt P03070). In kind it is functional, Betapolyomavirus macacae.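 Note: Confirmatory-stage PubChem screen for compounds that inhibit SV40 T antigen.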
For test [11], the target named is FAD-linked sulfhydryl oxidase ALR (Homo sapiens, UniProt P55789). Put plainly: ALR-catalysed DTT oxidation blockers – biochemical, H2O2 detection, luminescence, cherry-pick, dose response (AID 493248).
Chain of FAD-linked sulfhydryl oxidase ALR (P55789 whole entry): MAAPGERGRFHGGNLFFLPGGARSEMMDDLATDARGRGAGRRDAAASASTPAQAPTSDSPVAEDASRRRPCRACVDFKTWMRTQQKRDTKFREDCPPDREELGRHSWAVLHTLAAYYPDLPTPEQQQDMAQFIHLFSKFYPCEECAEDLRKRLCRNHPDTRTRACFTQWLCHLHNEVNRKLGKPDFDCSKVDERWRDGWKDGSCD
A short description of test [12]: alpha-synuclein stem-loop luciferase translation blockers – H4 neuroglioma cells, luminescence, confirmation (AID 1988). Format: functional, cell-based.
The nature of test [13]: Luminescence Cell-Based Dose Response HTS to Identify Inhibitors of 5'UTR Stem-Loop Driven Prion Protein mRNA Translation in H4 Neuroglioblastoma Cells. [Related pubchem assays: 1827 (Project Summary), 1813 (Primary HTS)]. Format: functional.
Test [14] in a line: luciferase reporter signal suppression in cells – H4 neuroglioma cells, luminescence, dose response (AID 1990). In kind it is functional, cell-based.
The target in test [15] is T2, Cytochrome P450 1A2 (Homo sapiens, UniProt P05177).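 Note: PubChem cytochrome P450 panel assay, CYP1A2 panel member.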
T2 sequence (P05177 whole entry): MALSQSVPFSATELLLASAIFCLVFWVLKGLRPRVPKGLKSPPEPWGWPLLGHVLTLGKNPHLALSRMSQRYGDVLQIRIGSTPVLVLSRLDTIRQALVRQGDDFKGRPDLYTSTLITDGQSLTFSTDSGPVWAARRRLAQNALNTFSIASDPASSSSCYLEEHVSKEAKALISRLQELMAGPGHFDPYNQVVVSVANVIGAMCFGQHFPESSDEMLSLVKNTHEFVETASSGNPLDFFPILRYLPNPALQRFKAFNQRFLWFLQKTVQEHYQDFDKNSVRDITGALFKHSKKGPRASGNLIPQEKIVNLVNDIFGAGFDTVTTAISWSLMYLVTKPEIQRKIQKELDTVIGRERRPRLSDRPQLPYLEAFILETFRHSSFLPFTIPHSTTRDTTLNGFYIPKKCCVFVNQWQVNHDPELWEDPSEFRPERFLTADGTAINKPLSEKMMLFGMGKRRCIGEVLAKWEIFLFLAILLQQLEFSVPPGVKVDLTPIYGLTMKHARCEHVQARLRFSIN

Test [16] has as its target Cytochrome P450 2D6 (Homo sapiens, UniProt P10635).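 Note: CYP2D6 member of a cytochrome P450 panel assay.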
Test [17] concerns the target Cytochrome P450 2C19 (Homo sapiens, UniProt P33261). The experiment in a line: Cytochrome panel assay with activity outcomes. Panel member name: p450-cyp2c19 Compounds with AC50 equal or less than 10 uM are considered active. In kind it is functional. To be noted: read-out: AC50.
Test [18] deals with Cytochrome P450 3A4 (Homo sapiens, UniProt P08684).
Chain of Cytochrome P450 3A4 (P08684 whole entry): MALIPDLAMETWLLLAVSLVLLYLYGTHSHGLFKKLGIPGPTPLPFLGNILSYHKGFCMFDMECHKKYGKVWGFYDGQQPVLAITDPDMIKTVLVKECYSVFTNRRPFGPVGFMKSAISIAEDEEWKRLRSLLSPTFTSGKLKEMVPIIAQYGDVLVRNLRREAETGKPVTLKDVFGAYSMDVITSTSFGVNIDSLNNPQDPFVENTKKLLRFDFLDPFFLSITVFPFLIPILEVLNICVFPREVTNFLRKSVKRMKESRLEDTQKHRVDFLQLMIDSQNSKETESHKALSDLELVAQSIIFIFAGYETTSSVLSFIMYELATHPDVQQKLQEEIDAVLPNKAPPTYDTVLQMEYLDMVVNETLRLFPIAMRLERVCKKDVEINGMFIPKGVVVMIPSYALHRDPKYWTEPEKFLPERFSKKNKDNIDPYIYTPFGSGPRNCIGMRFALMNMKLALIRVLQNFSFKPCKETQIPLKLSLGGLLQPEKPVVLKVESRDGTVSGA
In test [19] the test system is H4. The experiment in a line: Luminescence Cell-Based Dose Response HTS to Identify Activators of 5'UTR Stem-Loop Driven Prion Protein mRNA Translation in H4 Neuroglioblastoma Cells. [Related pubchem assays: 1829 (Project Summary), 1814 (Primary HTS)]. Conditions: Homo sapiens. In kind it is functional.
Test [20] is described as follows: Luminescence Cell-Based Dose Response HTS to Identify Activators of Luciferase Translation or Activity in H4 […] Cells. [Related pubchem assays: 1829 (Project Summary), 1814 (Primary HTS)]. Format: functional.
Test [21] is described as follows: Luminescence Cell-Based Dose Confirmation HTS to Identify Activators of 5'UTR Stem-Loop Driven Alpha-Synuclein mRNA Translation in H4 Neuroglioblastoma Cells. [Related pubchem assays: 1829 (Project Summary), 1814 (Primary HTS)]. In kind it is functional.
The nature of test [22]: NIH3T3 cell viability loss – ATP luminescence, mouse fibroblasts, counter-screen, dose response (AID 2010).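 Note: cells exposed to compound for about 90 hours before reading.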 In kind it is functional, cell-based.
Test [23] can be described thus: Trypanosoma cruzi growth suppression in host cells – NIH3T3 host cells, beta-gal luminescence, confirmation (AID 2044).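 Note: intracellular parasites grown in NIH/3T3 mouse fibroblasts as host cells; luminescent beta-galactosidase reporter signal from transgenic T. cruzi replicating inside host cells; inhibitors lower the luminescence signal.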 Format: functional, cell-based.

Chain of Large T antigen (P03070 whole entry): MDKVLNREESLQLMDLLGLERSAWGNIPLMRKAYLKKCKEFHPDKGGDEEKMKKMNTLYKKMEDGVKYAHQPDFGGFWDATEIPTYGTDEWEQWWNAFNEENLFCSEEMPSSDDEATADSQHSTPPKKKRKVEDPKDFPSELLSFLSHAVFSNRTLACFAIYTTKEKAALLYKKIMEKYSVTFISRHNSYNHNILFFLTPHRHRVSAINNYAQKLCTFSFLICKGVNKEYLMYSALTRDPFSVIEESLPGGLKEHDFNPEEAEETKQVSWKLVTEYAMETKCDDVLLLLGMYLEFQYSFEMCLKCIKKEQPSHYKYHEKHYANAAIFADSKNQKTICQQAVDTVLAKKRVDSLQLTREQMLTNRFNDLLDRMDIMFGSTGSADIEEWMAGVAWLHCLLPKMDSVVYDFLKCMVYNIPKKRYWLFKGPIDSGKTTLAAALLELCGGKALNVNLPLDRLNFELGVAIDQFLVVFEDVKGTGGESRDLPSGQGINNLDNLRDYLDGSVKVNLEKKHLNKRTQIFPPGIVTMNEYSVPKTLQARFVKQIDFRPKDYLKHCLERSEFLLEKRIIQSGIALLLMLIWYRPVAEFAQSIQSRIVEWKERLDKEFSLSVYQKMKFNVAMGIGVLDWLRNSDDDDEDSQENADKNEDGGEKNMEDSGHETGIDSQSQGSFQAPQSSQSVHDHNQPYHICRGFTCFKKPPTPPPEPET
Chain of Cytochrome P450 2D6 (P10635 whole entry): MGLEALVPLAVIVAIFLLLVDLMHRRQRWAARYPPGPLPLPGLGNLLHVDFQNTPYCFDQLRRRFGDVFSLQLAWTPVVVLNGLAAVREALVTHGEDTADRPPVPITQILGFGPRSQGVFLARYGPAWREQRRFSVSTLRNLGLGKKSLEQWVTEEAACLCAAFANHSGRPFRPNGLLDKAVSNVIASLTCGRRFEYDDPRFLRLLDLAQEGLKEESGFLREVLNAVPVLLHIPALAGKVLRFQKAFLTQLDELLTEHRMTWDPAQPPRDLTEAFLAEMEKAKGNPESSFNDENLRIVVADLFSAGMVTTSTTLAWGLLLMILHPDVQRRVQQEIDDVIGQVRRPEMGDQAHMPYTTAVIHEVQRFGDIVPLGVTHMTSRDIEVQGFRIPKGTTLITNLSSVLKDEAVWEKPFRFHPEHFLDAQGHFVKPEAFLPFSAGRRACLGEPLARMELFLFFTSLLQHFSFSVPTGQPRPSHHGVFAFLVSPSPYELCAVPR
Chain of Cytochrome P450 2C19 (P33261 whole entry): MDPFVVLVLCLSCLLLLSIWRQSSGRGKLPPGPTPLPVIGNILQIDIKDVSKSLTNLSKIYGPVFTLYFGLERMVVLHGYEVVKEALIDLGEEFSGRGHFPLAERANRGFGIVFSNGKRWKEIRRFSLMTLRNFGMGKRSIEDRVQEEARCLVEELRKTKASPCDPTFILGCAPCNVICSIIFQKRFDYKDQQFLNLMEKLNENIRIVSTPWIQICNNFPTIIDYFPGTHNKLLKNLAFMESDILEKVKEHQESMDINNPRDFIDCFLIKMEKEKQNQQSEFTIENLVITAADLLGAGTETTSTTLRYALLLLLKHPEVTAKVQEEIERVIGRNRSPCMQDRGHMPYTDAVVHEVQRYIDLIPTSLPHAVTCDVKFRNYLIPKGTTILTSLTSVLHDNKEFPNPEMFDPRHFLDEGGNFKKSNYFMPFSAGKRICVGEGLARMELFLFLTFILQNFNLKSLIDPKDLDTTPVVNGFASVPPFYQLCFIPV

Regarding `Cc1cccc(NC(=S)N/N=C/c2c[nH]c3ccccc23)c1`, in [1], the AC50 is 0.704 µM (active).
As for `C[C@H](CO)N1C[C@H](C)[C@@H](CN(C)CC2CCCCC2)Oc2ccc(NC(=O)Nc3ccc(F)cc3)cc2CC1=O`, the half-maximal activity concentration (AC50) in test [2] was 6.76 µM (active).
For the compound `Fc1ccc(SCCc2ccncc2)cc1`, the IC50 in [3] and in test [4] was > 66 µM (inactive) throughout.
With `Cc1ccc(-c2nnc(SCC(=O)N/N=C/c3c(C)nn(-c4ccccc4)c3C)n2-c2ccc(C)cc2)cc1`, in test [5], the CC50 was 20.5 µM (active).
As to `Cc1cccc2c1NC(=O)/C2=C\C(=O)c1cccs1`, the concentration at half-maximal activity (AC50) in [1] is 5.12 µM (active).
Turning to `CCOC(=O)c1sc(NC(=O)c2ccccc2OC)nc1C`, the EC50 in [6] is 22.8 µM (active); in test [7] it was 22.3 µM (active); in [8], 14.7 µM (active); in [9] it was > 150 µM (inconclusive).
For the compound `C[C@@H]1CCC(=O)N(CC[C@H](Sc2ccc(Br)cc2)c2ccccc2)CC1`, the AC50 in test [1] was 5.03 µM (active).
Turning to `COc1cc(SC)ccc1C(=O)N1CCN(c2ccc(O)cc2)CC1`, in test [10], the IC50 was 5.95 µM (active). Besides, the AC50 in test [11] was 0.68 µM (active).
As to `Cc1cc(C(=O)CSc2ccccc2)cc(C)c1O`, the CC50 in test [5] was 49.6 µM (active).
On to `Fc1ccc2c(c1)c1nnc(S)nc1n2CCc1ccccc1`, for which the IC50 in [3] and in test [4] was > 66 µM (inactive) each time.
As to `CNc1ccccc1C(C)(C)c1cc(-c2cc(C)cc(C)c2)no1`, in [1], the AC50 is 13.3 µM (active).
As for `COC(=O)C1=C(c2cc3ccccc3o2)C[C@@H]2CC[C@H]1N2C(=O)N1CCCCC1`, the EC50 was 10.5 µM (active) in [12]; 12.1 µM (active) in [13]; 28.8 µM (active) in test [6]; 4.58 µM (active) in [7]; > 120 µM (not active) in test [14]; 3.8 µM (inconclusive) in test [8]. In test [9], the EC50 was 20.9 µM (active).
For the compound `Fc1cccc(-c2cc3nc4c(c(NCc5ccco5)n3n2)CCCC4)c1`, the AC50 in test [1] is 6.81 µM (active).
As for `O=C(O)Cc1cc(I)c(Oc2ccc(O)c(I)c2)c(I)c1` [TIRATRICOL], the CC50 in test [5] was 13 µM (active). Also, the AC50 in test [15] is 12.6 µM (inconclusive).
On to `O=C(Nc1cccc(F)c1)N1CC(=O)N2[C@H](C1)[C@@H](c1ccc(C#CC3CC3)cc1)[C@@H]2CO`, for which, in test [2], the AC50 is 8.07 µM (active).
Regarding `Cc1ccccc1S(=O)(=O)N1CC(=O)N2[C@H](CO)[C@H](c3ccc(C#CC4CC4)cc3)[C@@H]2C1`, in test [2], the AC50 is 8.89 µM (active).
On to `Cc1ccc(-c2nnc(SCC(=O)N/N=C/c3c(C)nn(-c4ccccc4)c3C)n2-c2ccccc2)cc1`, for which, in [5], the 50% cytotoxic concentration (CC50) was 17.2 µM (active).
On to `Cc1cc(C)n(CCc2nc(-c3ccco3)cs2)n1`, for which the IC50 in [10] was 65.6 µM (active). Besides, in test [11], the AC50 was 4.56 µM (active).
Take `CC(=O)N1c2ccc(S(=O)(=O)N3c4ccccc4CC3C)cc2CC1C` (stereo unspecified): the CC50 in [5] was 15.1 µM (active).
On to `Cc1ccc2nc(O)c(CN(c3cccc(C)c3C)S(=O)(=O)c3ccccc3)cc2c1`, for which the 50% effective concentration (EC50) in test [6] was 46.6 µM (active); in test [7], 78.2 µM (active); in test [8], 69.9 µM (active); in test [9], > 150 µM (not active).
The like results for `COc1cccc(CNc2ncc(C(=O)Nc3cc(OC)c(OC)c(OC)c3)c(C)n2)c1` were, in that order, 46.7 µM (active), > 150 µM (not active), 19.6 µM (inconclusive) and 17.9 µM (inconclusive).
For `C=CCn1c(SCc2c(C)noc2C)nc2sc3c(c2c1=O)CCC(C)C3` (stereo unspecified), the concentration giving a half-maximal response (EC50) in test [6] was 4.12 µM (inconclusive); in test [7] it was 23.8 µM (active); in [8], 9.03 µM (active); in test [9] it was > 150 µM (inconclusive).
Turning to `O=[N+]([O-])c1cccc(NC(S)=Nc2nc(-c3ccccc3Cl)cs2)c1`, the IC50 in test [3] and in test [4] was > 66 µM (inactive) in each case.
For `CC(C)c1nc(SCC(=O)Nc2ccc(N3CCOCC3)cc2)c2ccccc2n1`, the IC50 in test [3] and in test [4] was > 66 µM (inactive) throughout.
As for `COc1cc(/C=N\Nc2nc3ccccc3[nH]2)cc(OC)c1OC`, the AC50 in test [16] was 17.8 µM (inconclusive); in test [11], 0.997 µM (active); in test [17], 17.8 µM (inconclusive).
On to `Cc1cc2nc(SCCOC(=O)Nc3cccc(Cl)c3)nc(C)c2cc1C`, for which, in test [5], the CC50 is 32.2 µM (active).
As to `O=C(Nc1ccc(Nc2ccccc2)cc1)c1cccc(F)c1`, the AC50 in test [1] was 3.9 µM (active).
In the case of `Cc1c(NC(=O)Oc2ccccc2)sc(=S)n1C`, the IC50 in [3] and in test [4] was > 66 µM (inactive) in each case.
In the case of `O=C(CSc1nc2ccccc2c(=O)n1CCCO)NCc1ccccc1`, the AC50 was 3.55 µM (inconclusive) in [18], 39.8 µM (inconclusive) in test [16] and 31.6 µM (inconclusive) in test [15]. The IC50 in test [3] and in [4] was > 66 µM (inactive) throughout.
On to `O=Cc1c(N2CCN(c3ccccc3)CC2)nc2ccccn2c1=O`, for which the EC50 was > 120 µM (not active) in [19], 17.8 µM (active) in test [20] and > 120 µM (not active) in [21]. Further, the AC50 in test [11] was 3.72 µM (active).
For `S=C(Sc1ccc(Cl)cc1)Sc1ccc(Cl)cc1`, the EC50 was > 150 µM (inconclusive) in test [6], 3.4 µM (inconclusive) in test [7], 9.25 µM (active) in [8] and 13.1 µM (inconclusive) in [9].
For the compound `CCC(=O)Nc1ccc2c(c1)OC[C@@H](C)N(Cc1cccc(F)c1)C[C@@H](C)[C@H](OC)CN(C)C2=O`, the AC50 in [2] was 3.64 µM (active).
Take `COCCCn1c2nc3ccccc3nc2c2c(=O)n(Cc3ccc(Cl)cc3)cnc21`: in test [5], the CC50 was > 50 µM (active).
In the case of `C[C@H](CO)N1C[C@H](C)[C@H](CN(C)S(=O)(=O)c2cccs2)OCc2ccccc2-c2c(n(C)c3ccccc23)C1=O`, the half-maximal activity concentration (AC50) in test [2] is 26.1 µM (active).
For `COc1ccc(Nc2cc(C)c3ccc(O)cc3n2)cc1`, the CC50 in [5] was 11.7 µM (active).
For the compound `Clc1cccc(Nc2nc(-c3ccncc3)cs2)c1`, in test [1], the AC50 was 3.5 µM (active). In addition, the EC50 is 5.87 µM (active) in test [22] and 0.714 µM (active) in test [23].
